Assay results: paper PMC9648375, “Identification of the first-in-class dual inhibitors of human DNA topoisomerase IIα and indoleamine-2,3-dioxygenase 1 (IDO 1) with strong anticancer properties” (Journal of Enzyme Inhibition and Medicinal Chemistry, 2022)
≈ marks a conversion by molar mass, not a printed value. Where two headings read alike, the source gives them in different places.

Legend:
MTT assay = type: cell-based; details: human, HEK-293 cells (normal reference cell line), HEK-293 (normal cells), read-out: IC50, cytotoxicity
Method: (§1) Therefore, the whole set of compounds were tested by using MTT assay in order to check their overall cytotoxic effect. The growth of cells was monitored after 24 and 48 h of incubation with the increased concentrations (1–100 µg/ml) of the thiosemicarbazide derivatives. […] This confirms that the compounds tested combine different mechanisms of anticancer activity, and DNA topoisomerase II inhibition is only one of them.
(§2) Cytotoxicity of the synthesised compounds were examined against a panel of the cancer cell lines, MCF-7 (estrogen-dependent human breast cancer cells), MDA-MB-231 (oestrogen-independent human breast cancer cells), SCC- 25 (squamous cell carcinoma of the tongue), FaDu (squamous cell carcinoma of the pharynx), A- 549 (human lung carcinoma), AGS (human gastric adenocarcinoma), LS-180, HT-29 (colon cancer cell lines), T98G (glioblastoma cells), A375 (melanoma cells). Human embryonic kidney (HEK-293) cells and human normal skin fibroblasts (CRL-2072) were used as reference cell lines. The investigated cell lines were obtained from American Type Culture Collection (ATCC; Manassas, VA, USA). A375, MCF-7, MDA-MB-231, T98G cells were cultured in Dulbecco’s Modified Eagle’s Medium (DMEM) (Sigma Aldrich, St. Louis, MO, USA) supplemented with 10% heat inactivated foetal bovine serum (FBS), penicillin (100 U/mL), and streptomycin (100 μg/mL). SCC-25 cells were cultured in 1:1 mixture of Dulbecco’s modified Eagle’s medium and Ham’s F12 Medium (Sigma Aldrich, St. Louis, MO, USA) supplemented with 400 ng/ml hydrocortisone, 10% FBS, penicillin (100 U/mL), and streptomycin (100 μg/mL). A549 and AGS cells were maintained in F-12K Medium (Sigma Aldrich, St. Louis, MO, USA). LS-180 and FaDu cells were cultured in Eagle’s Minimum Essential Medium. HT-29 cells were maintained in McCoy’s 5 A Medium (Sigma Aldrich, St. Louis, MO, USA) supplemented with 10%FBS, penicillin (100 U/mL), and streptomycin (100 μg/mL). All the cells were maintained at 37 °C in a humidified atmosphere of 5% CO2.
(§3) The synthesised compounds were dissolved in DMSO in order to obtain stock solutions. At the day of the experiment, the suspension of cells (1 × 10^5 cells/mL) in the respective medium was applied to a 96-well plate at 100 μL per well. […] The control cells were cultured only with a medium containing 2% FBS. Cytotoxicity of DMSO was also checked at concentrations present in respective dilutions of stock solution. After 24 h (or 48 h) of incubation, 15 μL of MTT working solution (5 mg/mL in PBS) was added to each well. The plate was incubated for 3 h. Subsequently, 100 μL of 10% SDS solution was added to each well. Cells were incubated overnight at 37 °C to dissolve the precipitated formazan crystals. The concentration of the dissolved formazan was evaluated by measuring the absorbance at λ = 570 nm, using a microplate reader (Epoch, BioTek Instruments, Inc., Winooski, VT, USA). At least two independent experiments were performed in triplicates. The results of the MTT assay were expressed as mean ± SD. […] IC50 values of the investigated derivatives and standards were calculated using the IC50 calculator.[23]

A375 (melanoma cells) = experiment: MTT assay; type: cell-based; details: Homo sapiens, read-out: IC50, cytotoxicity
Method: as §1, §2, §3

[1] = system: A549 (human lung carcinoma); experiment: MTT assay; type: cell-based; details: read-out: IC50, cytotoxicity
Method: as §1, §2, §3

[2] = system: AGS (human gastric adenocarcinoma); experiment: MTT assay; type: cell-based; details: read-out: IC50, cytotoxicity
Method: as §1, §2, §3

[3] = system: FaDu (squamous cell carcinoma of the pharynx); experiment: MTT assay; type: cell-based; details: Homo sapiens, read-out: IC50, cytotoxicity
Method: as §1, §2, §3

[4] = system: HT-29 (colon cancer cell line); experiment: MTT assay; type: cell-based; details: Homo sapiens, HT-29, MTT, read-out: IC50, cytotoxicity
Method: as §1, §2, §3

[5] = system: LS180 (colon cancer cell line); experiment: MTT assay; type: cell-based; details: Homo sapiens, read-out: IC50, cytotoxicity
Method: as §1, §2, §3

[6] = system: MCF-7 (estrogen-dependent human breast cancer cells); experiment: MTT assay; type: cell-based; details: MCF7, MCF-7, MTT, read-out: IC50, cytotoxicity
Method: as §1, §2, §3

[7] = system: MDA-MB-231 (estrogen-independent human breast cancer cells); experiment: MTT assay; type: cell-based; details: MDA-MB-231, MTT, read-out: IC50, cytotoxicity
Method: as §1, §2, §3

[8] = system: SCC-25 (squamous cell carcinoma of the tongue); experiment: MTT assay; type: cell-based; details: Homo sapiens, SCC-25, MTT, read-out: IC50, cytotoxicity
Method: as §1, §2, §3

[9] = system: T98G (glioblastoma cells); experiment: MTT assay; type: cell-based; details: Homo sapiens, read-out: IC50, cytotoxicity
Method: as §1, §2, §3

[10] = Solubility in culture media and buffers; type: physicochemical

melting point | Structure (SMILES) | IC50 at 24 h (MTT assay) | IC50 at 48 h (MTT assay) | IC50 (A375 (melanoma cells); A-375, 24h) | IC50 (A375 (melanoma cells); A-375, 48 h) | IC50 ([1]; 24h) | IC50 ([1]; 48h) | IC50 ([2]; 24h) | IC50 ([2]; 48 h) | IC50 ([3]; 24h) | IC50 ([3]; 48 h) | IC50 ([4]; 24h) | IC50 ([4]; 48 h) | IC50 ([5]; 24h) | IC50 ([5]; 48 h) | IC50 ([6]; 24h) | IC50 ([6]; 48h) | IC50 ([7]; 24h) | IC50 ([7]; 48h) | IC50 ([8]; 24h) | further results
174 to 176 °C | O=C(Cc1cccc2ccccc12)NNC(=S)NC(=O)c1ccccc1Cl [Compound 8, 4-(2-Chlorobenzoyl)-1-[(naphth-1-yl)acetyl]thiosemicarbazide] | > 100 µg/mL | 23.4 µg/mL (≈ 58.9 µM) | > 100 µg/mL | 9.45 µg/mL (≈ 23.8 µM) | > 100 µg/mL | > 100 µg/mL | > 100 µg/mL | > 100 µg/mL | > 100 µg/mL | 12.8 µg/mL (≈ 32.2 µM) | > 100 µg/mL | 14.8 µg/mL (≈ 37.1 µM) | > 100 µg/mL | 41.1 µg/mL (≈ 103 µM) | > 100 µg/mL | 12.7 µg/mL (≈ 32 µM) | > 100 µg/mL | 17.2 µg/mL (≈ 43.3 µM) | > 100 µg/mL | IC50 ([8]; 48 h): 29.5 µg/mL (≈ 74.1 µM); IC50 ([9]; 24h): 97.2 µg/mL (≈ 244 µM); IC50 ([9]; 48h): 11.8 µg/mL (≈ 29.7 µM)
164 to 166 °C | O=C(Cc1cccc2ccccc12)NNC(=S)NC(=O)c1ccccc1 [Compound 9, 4-Benzoyl-1-[(naphth-1-yl)acetyl]thiosemicarbazide] | 67 µg/mL (≈ 184 µM) | 23 µg/mL (≈ 63.4 µM) | > 100 µg/mL | 8.14 µg/mL (≈ 22.4 µM) | > 100 µg/mL | > 100 µg/mL | > 100 µg/mL | 19.7 µg/mL (≈ 54.1 µM) | 28.2 µg/mL (≈ 77.5 µM) | 19.5 µg/mL (≈ 53.7 µM) | > 100 µg/mL | 5.23 µg/mL (≈ 14.4 µM) | > 100 µg/mL | 19.8 µg/mL (≈ 54.5 µM) | > 100 µg/mL | 16.4 µg/mL (≈ 45 µM) | > 100 µg/mL | > 100 µg/mL | 32.2 µg/mL (≈ 88.6 µM) | IC50 ([8]; 48 h): 34.5 µg/mL (≈ 94.9 µM); IC50 ([9]; 24h): > 100 µg/mL; IC50 ([9]; 48h): 17.4 µg/mL (≈ 47.8 µM)
186 to 188 °C | O=C(Cc1cccc2ccccc12)NNC(=S)Nc1c(F)cccc1F [Compound 10, 4-(2,6-Difluorophenyl)-1-[(naphth-1-yl)acetyl]thiosemicarbazide] | 63.7 µg/mL (≈ 172 µM) | 19.5 µg/mL (≈ 52.5 µM) | 47.9 µg/mL (≈ 129 µM) | 30.1 µg/mL (≈ 81.2 µM) | 92.6 µg/mL (≈ 249 µM) | 32.8 µg/mL (≈ 88.4 µM) | 29.5 µg/mL (≈ 79.3 µM) | 21.1 µg/mL (≈ 56.7 µM) | 20.1 µg/mL (≈ 54.2 µM) | 29.7 µg/mL (≈ 80.1 µM) | 32.9 µg/mL (≈ 88.7 µM) | 32.2 µg/mL (≈ 86.6 µM) | 72.4 µg/mL (≈ 195 µM) | 12.6 µg/mL (≈ 33.8 µM) | 64.1 µg/mL (≈ 173 µM) | 20.6 µg/mL (≈ 55.6 µM) | 83.4 µg/mL (≈ 225 µM) | 68.1 µg/mL (≈ 183 µM) | 52.4 µg/mL (≈ 141 µM) | IC50 ([8]; 48 h): 23.9 µg/mL (≈ 64.2 µM); IC50 ([9]; 24h): 47.2 µg/mL (≈ 127 µM); IC50 ([9]; 48h): 30.6 µg/mL (≈ 82.5 µM)
182 to 184 °C | O=C(NNC(=S)Nc1ccc(F)cc1F)c1ccccc1[N+](=O)[O-] [Compound 11, 4-(2,4-Difluorophenyl)-1-(2-nitrobenzoyl)thiosemicarbazide] | – | – | – | – | – | – | – | – | – | – | – | – | – | – | – | – | – | – | – | solubility in culture media and buffers [10]: low solubility
190 to 192 °C | Cc1cccc(C(=O)NC(=S)NNC(=O)c2ccc(O)c([N+](=O)[O-])c2)c1 [Compound 12, 4-(3-Methylbenzoyl)-1-(4-hydroxy-3-nitrobenzoyl)thiosemicarbazide] | – | – | – | – | – | – | – | – | – | – | – | – | – | – | – | – | – | – | – | solubility in culture media and buffers [10]: low solubility
